In patent US11850220B2 (Augusta University Research Institute, Inc., priority 2020, dated 2023):

Key:
[1] = test system: carrageenan-induced paw edema; experiment: carrageenan-induced paw edema technique (anti-inflammatory); format: in vivo; details: for Observed (1/property): 1/(% inhibition of edema thickness at 3 h effect); for Observed (1/property): test concentration or dose not given here; for Potency (% Inhibition relative to indomethacin at 3 h effect): test concentration or dose not given here
Text: Anti-inflammatory properties of the ibuprofen-amino acid conjugate (5a-j) and ibuprofen-amino acid-4-aminophenol conjugates 7a-j were studied by the standard carrageenan-induced paw edema technique (Naumov, R. N. et al., Bioorg. Med. Chem. Lett. 2015, 25, 2314-2320; Tiwari, A. D. et al., Org. Biomol. Chem. 2014, 12, 7238-7249).

animal gastric mucosa = experiment: ulcerogenic liability; format: in vivo; details: in vivo
[2] = test system: acetic acid-induced abdominal writhing; experiment: acetic acid-induced abdominal writhing technique (peripheral analgesic); format: in vivo; details: for Potency: Relative to indomethacin; for % Inhibition/protection / Writing reflex ± SEM: in vivo; for % Inhibition/protection: test concentration or dose not given here; for Writing reflex ± SEM: test concentration or dose not given here
hot plate = hot plate technique (central analgesic); format: in vivo; details: for Potency: Relative to indomethacin at 120 min.
COX-1 = COX-1 (Homo sapiens, UniProt P23219); experiment: COX-1/2 bio-assay: COX-1; format: biochemical; details: read-out: IC50 ± SD, COX-1
Text: (§1) Cyclooxygenases (COX) are the key enzymes capable of the conversion of arachidonic acid to prostaglandins.

COX-2 = molecular target: T1, COX-2 (Homo sapiens, UniProt P35354); experiment: COX-1/2 bio-assay: COX-2; format: biochemical; details: for IC50: read-out: IC50 ± SD, COX-2; for SI(COX-2/COX-1): selectivity index COX-2/COX-1
T1 sequence (P35354 18-604): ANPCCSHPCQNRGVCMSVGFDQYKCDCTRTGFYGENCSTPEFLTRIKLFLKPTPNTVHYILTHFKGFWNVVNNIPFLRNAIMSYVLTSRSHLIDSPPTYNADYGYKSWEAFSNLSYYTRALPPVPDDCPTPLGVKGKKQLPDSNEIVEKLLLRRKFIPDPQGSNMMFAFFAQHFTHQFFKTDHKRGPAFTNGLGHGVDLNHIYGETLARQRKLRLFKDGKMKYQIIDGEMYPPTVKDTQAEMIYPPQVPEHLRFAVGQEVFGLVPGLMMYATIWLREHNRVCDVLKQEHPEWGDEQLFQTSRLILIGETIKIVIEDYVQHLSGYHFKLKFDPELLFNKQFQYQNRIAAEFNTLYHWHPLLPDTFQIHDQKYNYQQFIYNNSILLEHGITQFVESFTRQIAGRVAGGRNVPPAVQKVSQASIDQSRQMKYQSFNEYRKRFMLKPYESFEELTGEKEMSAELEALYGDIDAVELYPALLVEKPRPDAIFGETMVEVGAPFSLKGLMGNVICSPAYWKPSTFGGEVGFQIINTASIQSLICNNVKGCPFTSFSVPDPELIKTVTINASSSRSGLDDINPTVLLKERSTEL
Text: as §1

[3] = % inhibition of edema thickness at 3 h effect, Table 7
[4] = anti-inflammatory property (% inhibition of edema at 3 h), Table 8

Sequence of COX-1 (P23219 24-599): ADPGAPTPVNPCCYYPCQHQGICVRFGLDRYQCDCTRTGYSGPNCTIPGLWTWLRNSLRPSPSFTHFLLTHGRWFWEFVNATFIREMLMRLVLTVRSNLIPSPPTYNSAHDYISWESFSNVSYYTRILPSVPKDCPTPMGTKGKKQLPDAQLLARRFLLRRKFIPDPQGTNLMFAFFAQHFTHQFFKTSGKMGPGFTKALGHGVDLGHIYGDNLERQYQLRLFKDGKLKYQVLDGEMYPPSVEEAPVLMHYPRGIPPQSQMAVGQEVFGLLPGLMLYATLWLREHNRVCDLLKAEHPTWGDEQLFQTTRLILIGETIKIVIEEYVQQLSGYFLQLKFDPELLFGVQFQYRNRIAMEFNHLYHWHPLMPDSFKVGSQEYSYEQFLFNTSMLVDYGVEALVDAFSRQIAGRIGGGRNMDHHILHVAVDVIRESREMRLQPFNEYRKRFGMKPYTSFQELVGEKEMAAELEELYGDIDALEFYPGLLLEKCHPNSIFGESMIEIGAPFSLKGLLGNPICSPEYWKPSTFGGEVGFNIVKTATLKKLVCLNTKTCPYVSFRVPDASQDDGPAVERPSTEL

Compound: CC[C@H](C)[C@@H](NC(=O)C(C)c1ccc(CC(C)C)cc1)C(=O)Nc1ccc(O)cc1 (stereo partly shown) [Compound 7f]
- Observed (1/property) ([1]; Table 7): 0.01111
- % inhibition of edema ([1]; 1 h): 42%
- Mean edema thickness ([1]; 1 h): 0.71 ± 0.01 mm
- % inhibition of edema ([1]; 2 h): 48%
- Mean edema thickness ([1]; 2 h): 0.79 ± 0.04 mm
- % inhibition of edema ([1]; 3 h): 90%
- Mean edema thickness ([1]; 3 h): 0.13 ± 0.02 mm
- % inhibition of edema ([1]; 4 h): 16%
- Mean edema thickness ([1]; 4 h): 1.05 ± 0.05 mm
- % inhibition of edema ([1]; 24 h): 42%
- Mean edema thickness ([1]; 24 h): 0.11 ± 0.02 mm
- Observed property [1, 3]: 90%
- Observed property [1, 4]: 90%
- Potency (% Inhibition relative to indomethacin at 3 h effect) [1]: 113%
- % Incidence of ulcer divided by 10 (animal gastric mucosa): 0
- Average of ulcer number (animal gastric mucosa): 0
- Average severity of ulcer (animal gastric mucosa): 0
- Number of animals with ulcer (animal gastric mucosa): 0
- Ulcer index (animal gastric mucosa): 0
- Potency [2]: 155
- % Inhibition/protection [2]: 85.3%
- Writing reflex ± SEM [2]: 14.3 ± 0.8
- % protection (hot plate; After 30 min.): (64.5) %
- Latency period ± SEM (hot plate; After 30 min.): 3.98 ± 0.06 s
- % protection (hot plate; After 60 min.): (74.0) %
- Latency period ± SEM (hot plate; After 60 min.): 3.88 ± 0.02 s
- % protection (hot plate; After 90 min.): (76.4) %
- Latency period ± SEM (hot plate; After 90 min.): 3.88 ± 0.04 s
- % protection (hot plate; After 120 min.): (164.4) %
- Latency period ± SEM (hot plate; After 120 min.): 5.79 ± 0.04 s
- Potency (hot plate): 290
- potency, central analgesic properties (hot plate; in vivo): 2.9 folds of indomethacin
- IC50 (COX-1): 4.86 ± 0.24 µM
- IC50 (COX-2): 141 ± 11.1 µM
- SI(COX-2/COX-1) (COX-2): 29.0
- melting point: 205 °C

Compound: CC(C)Cc1ccc(C(C)C(=O)N[C@@H](CC(C)C)C(=O)Nc2ccc(O)cc2)cc1 (stereo partly drawn) [Compound 7g, (2S)-N-(4-Hydroxyphenyl)-2-(2-(4-isobutylphenyl)propanamido)-4-methylpentanamide]
- Observed (1/property) ([1]; Table 7): 0.01333
- % inhibition of edema ([1]; 1 h): 30%
- Mean edema thickness ([1]; 1 h): 0.86 ± 0.03 mm
- % inhibition of edema ([1]; 2 h): 39%
- Mean edema thickness ([1]; 2 h): 0.92 ± 0.04 mm
- % inhibition of edema ([1]; 3 h): 75%
- Mean edema thickness ([1]; 3 h): 0.33 ± 0.03 mm
- % inhibition of edema ([1]; 4 h): 48%
- Mean edema thickness ([1]; 4 h): 0.65 ± 0.03 mm
- % inhibition of edema ([1]; 24 h): 37%
- Mean edema thickness ([1]; 24 h): 0.12 ± 0.03 mm
- Observed property [1, 3]: 75%
- Observed property [1, 4]: 75%
- Potency (% Inhibition relative to indomethacin at 3 h effect) [1]: 94%
- % Incidence of ulcer divided by 10 (animal gastric mucosa): 0
- Average of ulcer number (animal gastric mucosa): 0
- Average severity of ulcer (animal gastric mucosa): 0
- Number of animals with ulcer (animal gastric mucosa): 0
- Ulcer index (animal gastric mucosa): 0
- Potency [2]: 144
- % Inhibition/protection [2]: 79.1%
- Writing reflex ± SEM [2]: 20.3 ± 0.9
- % protection (hot plate; After 30 min.): (36.0) %
- Latency period ± SEM (hot plate; After 30 min.): 3.29 ± 0.05 s
- % protection (hot plate; After 60 min.): (39.0) %
- Latency period ± SEM (hot plate; After 60 min.): 3.10 ± 0.01 s
- % protection (hot plate; After 90 min.): (43.6) %
- Latency period ± SEM (hot plate; After 90 min.): 3.16 ± 0.06 s
- % protection (hot plate; After 120 min.): (79.0) %
- Latency period ± SEM (hot plate; After 120 min.): 3.92 ± 0.08 s
- Potency (hot plate): 140
- IC50 (COX-1): 2.65 ± 0.13 µM
- IC50 (COX-2): 144 ± 11.2 µM
- SI(COX-2/COX-1) (COX-2): 54.3
- melting point: 230.5 °C

Compound: CC(C)Cc1ccc(C(C)C(=O)N[C@H](C(=O)Nc2ccc(O)cc2)C(C)C)cc1 (stereo partly drawn) [Compound 7h, (2S)-N-(4-Hydroxyphenyl)-2-(2-(4-isobutylphenyl)propanamido)-3-methylbutanamide]
- Observed (1/property) ([1]; Table 7): 0.01333
- % inhibition of edema ([1]; 1 h): 11%
- Mean edema thickness ([1]; 1 h): 1.09 ± 0.06 mm
- % inhibition of edema ([1]; 2 h): 54%
- Mean edema thickness ([1]; 2 h): 0.69 ± 0.05 mm
- % inhibition of edema ([1]; 3 h): 75%
- Mean edema thickness ([1]; 3 h): 0.32 ± 0.03 mm
- % inhibition of edema ([1]; 4 h): 48%
- Mean edema thickness ([1]; 4 h): 0.65 ± 0.04 mm
- % inhibition of edema ([1]; 24 h): 21%
- Mean edema thickness ([1]; 24 h): 0.15 ± 0.03 mm
- Observed property [1, 3]: 75%
- Observed property [1, 4]: 75%
- Potency (% Inhibition relative to indomethacin at 3 h effect) [1]: 94%
- % Incidence of ulcer divided by 10 (animal gastric mucosa): 0
- Average of ulcer number (animal gastric mucosa): 0
- Average severity of ulcer (animal gastric mucosa): 0
- Number of animals with ulcer (animal gastric mucosa): 0
- Ulcer index (animal gastric mucosa): 0
- Potency [2]: 137
- % Inhibition/protection [2]: 75.3%
- Writing reflex ± SEM [2]: 24.0 ± 0.4
- % protection (hot plate; After 30 min.): (58.3) %
- Latency period ± SEM (hot plate; After 30 min.): 3.83 ± 0.02 s
- % protection (hot plate; After 60 min.): (62.3) %
- Latency period ± SEM (hot plate; After 60 min.): 3.62 ± 0.03 s
- % protection (hot plate; After 90 min.): (58.6) %
- Latency period ± SEM (hot plate; After 90 min.): 3.49 ± 0.18 s
- % protection (hot plate; After 120 min.): (50.7) %
- Latency period ± SEM (hot plate; After 120 min.): 3.30 ± 0.02 s
- Potency (hot plate): 90
- IC50 (COX-1): 10.4 ± 0.51 µM
- IC50 (COX-2): 133 ± 9.4 µM
- SI(COX-2/COX-1) (COX-2): 12.8
- melting point: 202.2 °C
